“Also recorded” adds a separate entry of the source. Marks after values point to notes of the source that are not given here.
Assays:
[1] = Photophysical characterization (absorbance, extinction coefficient, emission, quantum yield); format: physicochemical; details: for ΦEtOH: EtOH; for ΦH2O: H2O; for fluorescence, in words: aqueous / phosphate buffer
Procedure: Extinction coefficients were the average of three independent determinations of three different readings from the lowest energy transition at three concentrations. Quantum yields are the average of three determinations of both quantum yield standard 9,10-diphenylanthracene and the synthesized coumarines at 340 nm unless otherwise indicated.
All spectra were recorded in 100 mM sodium phosphate (pH 7.4) unless otherwise indicated. Recorded λmax is that of the longest wavelength transition. Extinction coefficients were reported as the average of at least three independent preparations of the probes. Fluorescence measurements were taken on a Jobin Yvon Fluorolog fluorescence spectrofluorometer (slits 3, HV 750) in 100 mM sodium phosphate pH 7.4 buffer unless otherwise indicated. Quantum yields were measured relative to 9,10 diphenylanthracene in EtOH.4 Reported quantum efficiencies are the average of at least three independent preparations of the probes.
The extinction coefficient ε relates the absorbance of a compound to its concentration as expressed in Beer's law (A=εbc where A is absorbance, b is pathlength, and c is concentration). Extinction coefficients were the average of three independent determinations of three different readings of absorbance from the lowest energy transition at three concentrations. The quantum yield of fluorescence is the fraction of absorbed photons that lead to fluorescence; the number of photons fluoresced divided by the number of photons absorbed. To obtain the quantum yields of the synthesized coumarines their efficiency was compared to standard 9,10-diphenylanthracene at 340 nm in three different determinations. The effect of different solvents on the fluorescence of the compounds was also tested. The compounds were dissolved in methanol, chloroform and toluene and their emissions spectrum was taken.

[2] = Chemical stability; details: in words
[3] = Solubility in aqueous solution; format: physicochemical; details: in words
[4] = Table 5, 100 mM sodium phosphate pH 7.4
[5] = Table 5, 100 mM sodium phosphate pH 7.4, longest wavelength transition
[6] = Table 5, relative to 9,10-diphenyl anthracene (excited at 340 nm)
[7] = Table 5, relative to 9,10-diphenyl anthracene (excited at 365 nm)
[8] = Table 3 hydroxyl-amine probes, in water
[9] = Table 4, in water, relative to 9,10-diphenyl anthracene (excited at 340 nm)
[10] = Table 4 indoles, in water, first λmax column
[11] = Table 4 indoles, in water, second λmax
[12] = Table 3, in water, relative to 9,10-diphenyl anthracene (excited at 365 nm)
[13] = Table 4, in water, relative to 9,10-diphenyl anthracene (excited at 365 nm)
[14] = Table 4, in water, relative to coumarin 6 (excited at 420 nm)

7-(1H-Indol-5-yl)-4-methyl-chromen-2-one [Probe 4]
ε (M^−1cm^−1) [1, 4]: 11,600 ± 800 M^−1cm^−1
λmax (nm) [1, 5]: 349 nm
ΦEtOH [1, 6]: 0.36 ± 0.07^a
ΦH2O [1, 6]: 0.13 ± 0.02^a

[4-(4-Methyl-2-oxo-2H-chromen-7-yl)-phenyl]-carbamic acid tert-butyl ester [Probe 2]
ε (M^−1cm^−1) [1, 4]: 17,000 ± 1,000 M^−1cm^−1
λcm (nm) [1, 4]: 477 nm
λmax (nm) [1, 5]: 401 nm
ΦEtOH [1, 7]: 0.59 ± 0.09^b
ΦH2O [1, 7]: 0.08 ± 0.01^b

Nc1c(CCO)ccc2oc(=O)ccc12 [X]
ε (M^−1cm^−1) [1, 8]: 13,000 ± 3,000 M^−1cm^−1
λmax (nm) [1, 8]: 298 nm

Cc1cc(=O)oc2ccc3cc[nH]c3c12 [Probe 55, 9-Methyl-1H-pyrano[2,3-g]indol-7-one]
fluorescence, in words [1]: quite fluorescent

Cc1cc(=O)oc2ccc3[nH]ccc3c12 [XVIII]
Φ [1, 9]: 0.18 ± 0.05^a
ε (M^−1cm^−1) ([1]; Table 4 indoles, in water): 11,600 ± 800 M^−1cm^−1
λmax (nm) [1, 10]: 349 nm
λmax (nm) [1, 11]: 492 nm

Cc1cc(=O)oc2ccc(N)c(CCN)c12 [Probe 115, 6-Amino-5-(2-amino-ethyl)-4-methyl-chromen-2-one]
chemical stability [2]: stable when protonated; also recorded: very unstable once deprotonated, or even under neutral condition

CCN(CC)c1ccc2c(C)c(-c3ccc(N)c(CCO)c3)c(=O)oc2c1 [Probe 16, 3-[4-Amino-3-(2-hydroxy-ethyl)-phenyl]-7-diethylamino-4-methyl-chromen-2-one]
solubility in aqueous solution [3]: reasonably soluble
chemical stability [2]: chemically and photo-physically stable
fluorescence, in words [1]: much less fluorescent than Probe 17

O=c1oc2c3c4c(cc2c(C(F)(F)F)c1-c1ccc2[nH]ccc2c1)CCCN4CCC3 [XV]
λmax (nm) [1, 10]: 439 nm
λmax (nm) [1, 11]: 557 nm

O=c1oc2c3c4c(cc2c(C(F)(F)F)c1-c1ccc2[nH]ccc2c1)CCCN4CCC3 [Probe 25, 9-(1H-Indol-5-yl)-8-trifluoromethyl-2,3,5,6-tetrahydro-1H, 4H-11-oxa-3a-aza-benzo[de]anthracen-10-one]
fluorescence quantum yield, in words [1]: rather low quantum yield
fluorescence, in words [1]: distinct red-shift emission

NCCc1ccc2oc(=O)ccc2c1N [V]
ε (M^−1cm^−1) ([1]; Table 2 diamines, in water): 6,000 ± 100 M^−1cm^−1
λmax (nm) ([1]; Table 2 diamines, in water): 299 nm

Cc1c(-c2ccc3[nH]ccc3c2)c(=O)oc2c3c4c(cc12)CCCN4CCC3 [Probe 24, 9-(1H-Indol-5-yl)-8-methyl-2,3,5,6-tetrahydro-1H, 4H-11-oxa-3a-aza-benzo[de]anthracen-10-one]
emission wavelength [1]: 495 nm

Cc1c(-c2ccc(N)c(CCO)c2)c(=O)oc2c3c4c(cc12)CCCN4CCC3 [VII]
Φ [1, 12]: 0.0040
ε (M^−1cm^−1) [1, 8]: 21,000 ± 2,000 M^−1cm^−1
λcm (nm) [1, 8]: 499 nm
λmax (nm) [1, 8]: 391 nm

CC12CC(=O)Oc3ccc(N)c(c31)CCN2 (centres unmarked) [Probe 125, 7-Amino-3a-methyl-3a,4,5,6-tetrahydro-3H-1-oxa-4-aza-phenalen-2-one]
fluorescence, in words [1]: non-fluorescent

NCCc1cc2oc(=O)ccc2cc1N [Probe 116, 6-Amino-7-(2-amino-ethyl)-chromen-2-one]
chemical stability [2]: perfectly stable
fluorescence, in words [1]: very weakly fluorescent

Cc1cc(=O)oc2ccc(N)c(CCN)c12 [IV]
Φ ([1]; Table 2, in water, relative to 9,10-diphenyl anthracene (excited at 340 nm)): 0.010

CCN(CC)c1ccc2c(C)c(-c3ccc4cc[nH]c4c3)c(=O)oc2c1 [XIII]
Φ [1, 13]: 0.0103 ± 0.0003^b
ε (M^−1cm^−1) ([1]; Table 4 indoles, in water): 20,000 ± 3,000 M^−1cm^−1
λmax (nm) [1, 10]: 399 nm
λmax (nm) [1, 11]: 484 nm

Cc1cc(=O)oc2ccc3cc[nH]c3c12 [XVII]
Φ [1, 9]: 0.0531 ± 0.0001^a
ε (M^−1cm^−1) ([1]; Table 4 indoles, in water): 14,000 ± 3,000 M^−1cm^−1
λmax (nm) [1, 10]: 330 nm
λmax (nm) [1, 11]: 488 nm

Nc1cc2ccc(=O)oc2cc1CCO [Probe 58, 6-Amino-7-(2-hydroxy-ethyl)-chromen-2-one]
fluorescence, in words [1]: basically non-fluorescent; also recorded: very weakly fluorescent

Cc1cc(=O)oc2c1ccc1[nH]ccc12 [Probe 36, 4-Methyl-7H-pyrano[2,3-e]indol-2-one]
fluorescence, in words [1]: very weak fluorescence emission intensity; also recorded: very weakly fluorescent

Nc1cc2ccc(=O)oc2cc1CCO [VIII]
λmax (nm) [1, 8]: 354 nm

CCN(CC)c1ccc2c(C)c(-c3ccc(N)c(CCN)c3)c(=O)oc2c1 [I]
ε (M^−1cm^−1) ([1]; Table 2 diamines, in water): 13,000 ± 1,000 M^−1cm^−1
λcm (nm) ([1]; Table 2 diamines, in water): 484 nm
λmax (nm) ([1]; Table 2 diamines, in water): 390 nm

CCN(CC)c1ccc2cc(-c3ccc4[nH]ccc4c3)c(=O)oc2c1 [XII]
Φ [1, 14]: 0.08 ± 0.02^c
ε (M^−1cm^−1) ([1]; Table 4 indoles, in water): 17,000 ± 1,000 M^−1cm^−1
λmax (nm) [1, 10]: 401 nm
λmax (nm) [1, 11]: 477 nm

Nc1ccc2oc(=O)ccc2c1CCO [IX]
Φ [1, 12]: 0.0017
ε (M^−1cm^−1) [1, 8]: 3,400 ± 500 M^−1cm^−1
λmax (nm) [1, 8]: 357 nm

O=c1ccc2cc3[nH]ccc3cc2o1 [XX]
Φ [1, 9]: 0.0082 ± 0.0004^a
ε (M^−1cm^−1) ([1]; Table 4 indoles, in water): 17,000 ± 2,000 M^−1cm^−1
λmax (nm) [1, 10]: 335 nm
λmax (nm) [1, 11]: 524 nm

O=c1oc2c3c4c(cc2cc1-c1ccc2[nH]ccc2c1)CCCN4CCC3 [XIV]
Φ [1, 13]: 0.050 ± 0.005^b
λmax (nm) [1, 10]: 388 nm
λmax (nm) [1, 11]: 501 nm

CCN(CC)c1ccc2c(C)c(-c3ccc(N)c(CCO)c3)c(=O)oc2c1 [VI]
Φ [1, 12]: 0.014
ε (M^−1cm^−1) [1, 8]: 15,000 ± 1,000 M^−1cm^−1
λcm (nm) [1, 8]: 499 nm
λmax (nm) [1, 8]: 394 nm

Cc1cc(=O)oc2cc(-c3ccc4[nH]ccc4c3)ccc12 [XI]
Φ [1, 9]: 0.00329 ± 0.00008^a
λmax (nm) [1, 10]: 339 nm
λmax (nm) [1, 11]: 445 nm

CCN(CC)c1ccc2c(C)c(-c3ccc(N)c(CCN)c3)c(=O)oc2c1 [Probe 114, 3-[4-Amino-3-(2-amino-ethyl)-phenyl]-7-diethylamino-4-methyl-chromen-2-one]
solubility in aqueous solution [3]: water solubility
chemical stability [2]: desired chemical stability

7-(4-Amino-phenyl)-4-methyl-chromen-2-one [Probe 1]
ε (M^−1cm^−1) [1, 4]: 13,000 ± 1,000 M^−1cm^−1
λcm (nm) [1, 4]: 484 nm
λmax (nm) [1, 5]: 390 nm
ΦEtOH [1, 7]: 0.0287 ± 0.0006^b
ΦH2O [1, 7]: 0.00112 ± 0.00008^b

Cc1cc(=O)oc2ccc(N)c(CCO)c12 [Probe 57, 6-Amino-5-(2-hydroxy-ethyl)-4-methyl-chromen-2-one]
solubility in aqueous solution [3]: very soluble
chemical stability [2]: chemically and photo-physically stable
fluorescence, in words [1]: essentially non-fluorescent; also recorded: very weakly fluorescent

O=c1ccc2c(ccc3[nH]ccc32)o1 [XIX]
Φ [1, 14]: 0.05 ± 0.02^c
ε (M^−1cm^−1) ([1]; Table 4 indoles, in water): 9,400 ± 900 M^−1cm^−1
λmax (nm) [1, 10]: 355 nm
λmax (nm) [1, 11]: 517 nm

7-[4-Amino-3-(2-hydroxy-ethyl)-phenyl]-4-methyl-chromen-2-one [Probe 3]
λcm (nm) [1, 4]: 492 nm
λmax (nm) [1, 5]: 350 nm
ΦH2O [1, 6]: 0.010 ± 0.003^a

Cc1cc(=O)oc2ccc3[nH]ccc3c12 [Probe 52, 9-Methyl-3H-pyrano[3,2-e]indol-7-one]
fluorescence, in words [1]: quite fluorescent

Nc1c(CCO)ccc2oc(=O)ccc12 [Probe 81, 5-Amino-6-(2-hydroxy-ethyl)-chromen-2-one]
fluorescence, in words [1]: very weakly fluorescent; also recorded: only weak fluorescence

Source: patent publication US20080194522A1, “Development of Fluorogenic Substrates For Monoamine Oxidases (Mao-A and Mao-B)” (priority 2004, published 2008)
